{"source": "patent US20250302051A1", "about": "“COMPOSITIONS WITH NANOPLATELET OXIDES OR HYDROXIDES AND METHODS OF PREPARING AND USING SAME” (Aqua Resources Corporation, priority 2024, published 2025)", "key": {"[1]": {"tested_on": "B. cereus (ATCC 14579)", "test": "Nanoplatelet composition vs antibiotic parallel test, B. cereus", "format": "cell-based"}, "[2]": {"tested_on": "MRSA (S. aureus)", "test": "Nanoplatelet composition vs antibiotic parallel test, MRSA", "format": "cell-based, Staphylococcus aureus", "method": "The nanoplatelet composition achieved total mitigation of MRSA from a 7 log pathogen population (10 million bacteria per mL) to zero in 3 hours. Levoflaxin, a commonly administered antibiotic used for treating MRSA, was tested at clinical doses and is shown as the dashed line. At various concentrations, the nanoplatelet composition eliminated MRSA more completely than levoflaxin after 24 hours with no rebound."}, "[3]": {"tested_on": "CRE (E. coli)", "test": "Nanoplatelet composition vs antibiotic parallel test, CRE E. coli", "format": "cell-based", "conditions": "within 24 hours; colistin 2 μg/mL; FIG. 8"}, "[4]": {"tested_on": "CRE (K. pneumoniae)", "test": "Nanoplatelet composition vs antibiotic parallel test, CRE K. pneumoniae", "format": "cell-based"}, "[5]": {"tested_on": "S. aureus (VISA)", "test": "Nanoplatelet composition vs antibiotic parallel test, VISA", "format": "cell-based"}}}
{"molecule": "O=C(O)c1cn(C2CC2)c2cc(N3CCNCC3)c(F)cc2c1=O", "note": "[Cyproflaxin]", "values": [{"measurement": "Log Kill", "setting": "[1]", "value": 0.5, "unit": "Log"}]}
{"molecule": "C[C@H]1COc2c(N3CCN(C)CC3)c(F)cc3c(=O)c(C(=O)O)cn1c23", "note": "[Levoflaxin]", "values": [{"measurement": "Log Kill", "setting": "[2]", "value": 4.5, "unit": "Log"}]}
{"molecule": "Colistin", "values": [{"measurement": "rebound of bacteria population", "setting": "[3]", "value": "completely rebounded"}]}
{"molecule": "CN(C)c1cc(NC(=O)CNC(C)(C)C)c(O)c2c1C[C@H]1C[C@H]3[C@H](N(C)C)C(O)=C(C(N)=O)C(=O)[C@@]3(O)C(O)=C1C2=O", "note": "[Tigecycline]", "values": [{"measurement": "Log Kill", "setting": "[4]", "value": 8, "unit": "Log"}, {"measurement": "Time to Zero", "setting": "[4]", "value": 24, "unit": "h"}]}
{"molecule": "CC(=O)NC[C@H]1CN(c2ccc(N3CCOCC3)c(F)c2)C(=O)O1", "note": "[Linezolid]", "values": [{"measurement": "Log Kill", "setting": "[5]", "value": 0.5, "unit": "Log"}]}
